Measured values taken from PubChem BioAssay AID2060912 (Molecular Pharmacology Branch, DTP, NCI, 2025).

Test system: HUVEC/MSC spheroids viability
Experiment: Human HUVEC/MSC cell line growth inhibition [KRAS2];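 for viability, T/C: percent of DMSO vehicle control luminescence so 100% = untreated viability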
Details: for IC50: curve of first compound; for viability, T/C: stronger effect = lower value
Procedure, shortened: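 Growth/viability of tumour-free HUVEC–hMSC spheroids was measured after exposure to targeted small molecules and KRAS inhibitors, singly or in combination. Agents were diluted in half-log steps from Cmax-based top concentrations, capped at 10 microM without known Cmax.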

[1] = second compound 0.0316 µM, first compound 0.0316 µM
[2] = second compound 0.0316 µM, first compound 0.1 µM
[3] = second compound 0.0316 µM, first compound 0.316 µM
[4] = second compound 0.0316 µM, first compound 1 µM
[5] = second compound 0.0316 µM, first compound 3.16 µM
[6] = second compound 0.0316 µM, first compound 10 µM
[7] = second compound 0.1 µM, first compound 0.0316 µM
[8] = second compound 0.1 µM, first compound 0.1 µM
[9] = second compound 0.1 µM, first compound 0.316 µM
[10] = second compound 0.1 µM, first compound 1 µM
[11] = second compound 0.1 µM, first compound 3.16 µM
[12] = second compound 0.1 µM, first compound 10 µM
[13] = second compound 0.316 µM, first compound 0.0316 µM
[14] = second compound 0.316 µM, first compound 0.1 µM
[15] = second compound 0.316 µM, first compound 0.316 µM
[16] = second compound 0.316 µM, first compound 1 µM
[17] = second compound 0.316 µM, first compound 3.16 µM
[18] = second compound 0.316 µM, first compound 10 µM
[19] = second compound 1 µM, first compound 0.0316 µM
[20] = second compound 1 µM, first compound 0.1 µM
[21] = second compound 1 µM, first compound 0.316 µM
[22] = second compound 1 µM, first compound 1 µM
[23] = second compound 1 µM, first compound 3.16 µM
[24] = second compound 1 µM, first compound 10 µM
[25] = second compound 3.16 µM, first compound 0.0316 µM
[26] = second compound 3.16 µM, first compound 0.1 µM
[27] = second compound 3.16 µM, first compound 0.316 µM
[28] = second compound 3.16 µM, first compound 1 µM
[29] = second compound 3.16 µM, first compound 3.16 µM
[30] = second compound 3.16 µM, first compound 10 µM
[31] = second compound 10 µM, first compound 0.0316 µM
[32] = second compound 10 µM, first compound 0.1 µM
[33] = second compound 10 µM, first compound 0.316 µM
[34] = second compound 10 µM, first compound 1 µM
[35] = second compound 10 µM, first compound 3.16 µM
[36] = second compound 10 µM, first compound 10 µM

With `CC1OCC2(CCN(c3cnc(Sc4ccnc(N)c4Cl)c(N)n3)CC2)C1N` (stereo unspecified) + C=CC(=O)N1CCN(c2nc(=O)n(-c3c(C)ccnc3C(C)C)c3nc(-c4c(O)cccc4F)c(F)cc23)C(C)C1 the IC50 (second compound 0.0316 µM) was over 10000 nM, the IC50 (second compound 0.1 µM) was over 10000 nM and the IC50 (second compound 0.316 µM) was over 10000 nM. The IC50 (second compound 1 µM) was over 10000 nM, the IC50 (second compound 3.16 µM) was over 10000 nM and the IC50 (second compound 10 µM) was over 10000 nM. It also gave a viability, T/C [1] of 118%, a viability, T/C [2] of 101% and a viability, T/C [3] of 105%. The viability, T/C [4] was 80.5%, the viability, T/C [5] was 70.1% and the viability, T/C [6] was 70.5%. For the same compound, the viability, T/C [7] was 110%, the viability, T/C [8] was 107% and the viability, T/C [9] was 97.2%. For the same compound, the viability, T/C [10] was 84.3%, the viability, T/C [11] was 72% and the viability, T/C [12] was 67.9%. It also gave a viability, T/C [13] of 96.8%, a viability, T/C [14] of 129% and a viability, T/C [15] of 92.1%. For the same compound, the viability, T/C [16] was 88%, the viability, T/C [17] was 81.8% and the viability, T/C [18] was 78.5%. It also gave a viability, T/C [19] of 101%, a viability, T/C [20] of 126% and a viability, T/C [21] of 105%. It also gave a viability, T/C [22] of 99.7%, a viability, T/C [23] of 89% and a viability, T/C [24] of 77.5%. For the same compound, the viability, T/C [25] was 116%, the viability, T/C [26] was 136% and the viability, T/C [27] was 111%. For the same compound, the viability, T/C [28] was 92.7%, the viability, T/C [29] was 109% and the viability, T/C [30] was 71.3%. The viability, T/C [31] was 104%, the viability, T/C [32] was 121% and the viability, T/C [33] was 120%. The viability, T/C [34] was 98.3%, the viability, T/C [35] was 95.5% and the viability, T/C [36] was 54.7%.
Work on `Cn1nccc1Nc1nccc(-c2cc3c(s2)C(C)(C)N(CCN2CCOCC2)C3=O)n1` + C=CC(=O)N1CCN(c2nc(=O)n(-c3c(C)ccnc3C(C)C)c3nc(-c4c(O)cccc4F)c(F)cc23)C(C)C1 yielded an IC50 (second compound 0.0316 µM) of 2980 nM, an IC50 (second compound 0.1 µM) of 2650 nM and an IC50 (second compound 0.316 µM) of 2700 nM. For the same compound, the IC50 (second compound 1 µM) was 3090 nM, the IC50 (second compound 3.16 µM) was 2660 nM and the IC50 (second compound 10 µM) was 2560 nM. The viability, T/C [1] was 86.7%, the viability, T/C [2] was 102% and the viability, T/C [3] was 112%. The viability, T/C [4] was 93.3%, the viability, T/C [5] was 47.7% and the viability, T/C [6] was 5.76%. The viability, T/C [7] was 105%, the viability, T/C [8] was 108% and the viability, T/C [9] was 105%. The viability, T/C [10] was 93.4%, the viability, T/C [11] was 42.1% and the viability, T/C [12] was 9.02%. The viability, T/C [13] was 99.2%, the viability, T/C [14] was 114% and the viability, T/C [15] was 98.6%. It also gave a viability, T/C [16] of 99.6%, a viability, T/C [17] of 42.2% and a viability, T/C [18] of 5.77%. It also gave a viability, T/C [19] of 99.8%, a viability, T/C [20] of 118% and a viability, T/C [21] of 129%. The viability, T/C [22] was 90.2%, the viability, T/C [23] was 51.1% and the viability, T/C [24] was 4.48%. For the same compound, the viability, T/C [25] was 115%, the viability, T/C [26] was 129% and the viability, T/C [27] was 112%. The viability, T/C [28] was 84%, the viability, T/C [29] was 45.3% and the viability, T/C [30] was 4.12%. The viability, T/C [31] was 150%, the viability, T/C [32] was 128% and the viability, T/C [33] was 135%. For the same compound, the viability, T/C [34] was 106%, the viability, T/C [35] was 37% and the viability, T/C [36] was 3.03%.
For `CC(=O)OC12COC1CC(O)C1(C)C(=O)C(O)C3=C(C)C(OC(=O)C(O)C(NC(=O)OC(C)(C)C)c4ccccc4)CC(O)(C(OC(=O)c4ccccc4)C21)C3(C)C` (stereo unspecified) + C=CC(=O)N1CCN(c2nc(OCC3CCCN3C)nc3c2CCN(c2cccc4cccc(C)c24)C3)CC1CC#N, the IC50 (second compound 0.00949 µM) was under 9.49 nM, the IC50 (second compound 0.03 µM) was under 9.49 nM and the IC50 (second compound 0.0949 µM) was under 9.49 nM. For the same compound, the IC50 (second compound 0.3 µM) was under 9.49 nM, the IC50 (second compound 0.949 µM) was under 9.49 nM and the IC50 (second compound 3 µM) was over 3000 nM. It also gave a viability, T/C (second compound 0.00949 µM, first compound 0.00949 µM) of 48.9%, a viability, T/C (second compound 0.00949 µM, first compound 0.03 µM) of 42.7% and a viability, T/C (second compound 0.00949 µM, first compound 0.0949 µM) of 47.8%. For the same compound, the viability, T/C (second compound 0.00949 µM, first compound 0.3 µM) was 47%, the viability, T/C (second compound 0.00949 µM, first compound 0.949 µM) was 47.8% and the viability, T/C (second compound 0.00949 µM, first compound 3 µM) was 58%. For the same compound, the viability, T/C (second compound 0.03 µM, first compound 0.00949 µM) was 44.7%, the viability, T/C (second compound 0.03 µM, first compound 0.03 µM) was 40.9% and the viability, T/C (second compound 0.03 µM, first compound 0.0949 µM) was 38%. The viability, T/C (second compound 0.03 µM, first compound 0.3 µM) was 48.1%, the viability, T/C (second compound 0.03 µM, first compound 0.949 µM) was 47.1% and the viability, T/C (second compound 0.03 µM, first compound 3 µM) was 49.4%. It also gave a viability, T/C (second compound 0.0949 µM, first compound 0.00949 µM) of 44.3%, a viability, T/C (second compound 0.0949 µM, first compound 0.03 µM) of 42.1% and a viability, T/C (second compound 0.0949 µM, first compound 0.0949 µM) of 41.6%. The viability, T/C (second compound 0.0949 µM, first compound 0.3 µM) was 40.4%, the viability, T/C (second compound 0.0949 µM, first compound 0.949 µM) was 45.1% and the viability, T/C (second compound 0.0949 µM, first compound 3 µM) was 48.3%. The viability, T/C (second compound 0.3 µM, first compound 0.00949 µM) was 40.4%, the viability, T/C (second compound 0.3 µM, first compound 0.03 µM) was 49.7% and the viability, T/C (second compound 0.3 µM, first compound 0.0949 µM) was 45%. For the same compound, the viability, T/C (second compound 0.3 µM, first compound 0.3 µM) was 34.3%, the viability, T/C (second compound 0.3 µM, first compound 0.949 µM) was 48.1% and the viability, T/C (second compound 0.3 µM, first compound 3 µM) was 55%. It also gave a viability, T/C (second compound 0.949 µM, first compound 0.00949 µM) of 44.7%, a viability, T/C (second compound 0.949 µM, first compound 0.03 µM) of 48.3% and a viability, T/C (second compound 0.949 µM, first compound 0.0949 µM) of 50.5%. The viability, T/C (second compound 0.949 µM, first compound 0.3 µM) was 44.5%, the viability, T/C (second compound 0.949 µM, first compound 0.949 µM) was 63.9% and the viability, T/C (second compound 0.949 µM, first compound 3 µM) was 51.5%. It also gave a viability, T/C (second compound 3 µM, first compound 0.00949 µM) of 82.6%, a viability, T/C (second compound 3 µM, first compound 0.03 µM) of 76.2% and a viability, T/C (second compound 3 µM, first compound 0.0949 µM) of 75.6%. The viability, T/C (second compound 3 µM, first compound 0.3 µM) was 62.6%, the viability, T/C (second compound 3 µM, first compound 0.949 µM) was 67.5% and the viability, T/C (second compound 3 µM, first compound 3 µM) was 90.5%.
